Measurements reported in publication PMC5701749 (Biochemistry, 2017).
Several values for one entry are separate records, joined by “and”; a condition that tells them apart may be missing. Equal entries are not always repeated. Where two headings read alike, the source gives them in different places.

Experiments:
mouse P-gp mdr1a [1] = target: T1, mouse P-gp mdr1a (Mus musculus, UniProt P21447); conditions: DMPC nanodiscs; for V2 (rate of ATP hydrolysis at infinite substrate concentration): footnote a = parameter reaching constraint set at >0; for K1 (substrate concentration for half-maximal stimulation of ATPase activity): footnote d = ambiguous, lack of ATPase stimulation
T1 sequence (P21447 whole entry): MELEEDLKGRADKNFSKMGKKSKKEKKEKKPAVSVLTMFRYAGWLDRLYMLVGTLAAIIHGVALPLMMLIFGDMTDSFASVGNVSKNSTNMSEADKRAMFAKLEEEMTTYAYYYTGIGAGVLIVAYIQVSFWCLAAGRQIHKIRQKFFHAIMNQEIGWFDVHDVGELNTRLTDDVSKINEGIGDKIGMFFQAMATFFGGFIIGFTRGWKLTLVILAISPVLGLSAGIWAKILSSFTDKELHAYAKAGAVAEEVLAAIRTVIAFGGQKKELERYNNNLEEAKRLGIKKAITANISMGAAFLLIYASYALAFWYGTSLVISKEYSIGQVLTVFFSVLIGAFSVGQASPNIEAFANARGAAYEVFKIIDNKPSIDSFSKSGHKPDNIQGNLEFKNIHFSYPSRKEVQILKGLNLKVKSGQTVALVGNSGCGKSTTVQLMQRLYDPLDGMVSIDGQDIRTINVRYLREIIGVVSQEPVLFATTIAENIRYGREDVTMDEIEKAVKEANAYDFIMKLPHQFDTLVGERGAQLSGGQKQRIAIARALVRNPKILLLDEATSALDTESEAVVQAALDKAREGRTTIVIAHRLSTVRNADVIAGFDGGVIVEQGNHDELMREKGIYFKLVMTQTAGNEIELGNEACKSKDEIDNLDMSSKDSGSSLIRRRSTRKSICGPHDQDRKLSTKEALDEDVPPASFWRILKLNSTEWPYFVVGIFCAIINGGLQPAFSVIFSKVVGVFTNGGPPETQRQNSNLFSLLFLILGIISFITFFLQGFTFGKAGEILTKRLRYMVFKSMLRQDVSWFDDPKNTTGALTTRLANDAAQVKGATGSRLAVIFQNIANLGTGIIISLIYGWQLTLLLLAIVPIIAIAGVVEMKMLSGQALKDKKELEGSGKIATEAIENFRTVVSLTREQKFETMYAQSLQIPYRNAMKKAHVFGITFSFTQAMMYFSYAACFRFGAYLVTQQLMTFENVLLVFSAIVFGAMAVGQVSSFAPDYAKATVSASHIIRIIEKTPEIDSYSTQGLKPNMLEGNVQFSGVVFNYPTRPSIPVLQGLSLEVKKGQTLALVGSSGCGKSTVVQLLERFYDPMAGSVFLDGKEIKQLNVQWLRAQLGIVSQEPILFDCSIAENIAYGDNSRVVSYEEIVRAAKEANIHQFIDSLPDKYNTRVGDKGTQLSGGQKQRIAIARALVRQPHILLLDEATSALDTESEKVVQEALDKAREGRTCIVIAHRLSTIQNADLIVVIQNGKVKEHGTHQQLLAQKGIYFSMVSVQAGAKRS

murine P-gp [2] = target: T2, murine P-gp (Mus musculus, UniProt P21447); conditions: for displacement of BD-verapamil from P-gp (in words) / displacement of BD-vinblastine from P-gp (in words): FCS competition; for n (Hill coefficient): drug displacing BD-vinblastine from P-gp nanodiscs
T2 sequence (P21447 whole entry): as above

murine P-gp [3] = target: T2, murine P-gp; assay: biochemical
[4] = FCS binding of fluorescent probes to empty nanodiscs; conditions: ND = not determined because of minimal binding
murine P-gp [5] = target: T2, murine P-gp
mouse P-gp mdr1a [6] = target: T1, mouse P-gp mdr1a; conditions: E. coli lipid nanodiscs; for V1 (maximal rate of ATP hydrolysis when there is only activation): footnote b = parameter held constant
murine P-gp [7] = target: T2, murine P-gp; type: biochemical; conditions: inside-out murine P-gp vesicles, ATP-dependent, 117 nM Flutax-2, 37 °C
mouse P-gp = mouse P-gp (Mus musculus, UniProt P21447); assay: ATPase assay in mouse P-gp vesicles; type: biochemical; conditions: concentration range studied
Chain of mouse P-gp (P21447 whole entry): as above

[8] = ATP and Vi (1 mM ATP, 240 μM Vi), vanadate-trapped, apparent KD
[9] = apo (control), nucleotide-free, apparent KD, high-affinity site

| Compound | V2 (rate of ATP hydrolysis at infinite substrate concentration) (mouse P-gp mdr1a [1]) | K1 (substrate concentration for half-maximal stimulation of ATPase activity) (mouse P-gp mdr1a [1]) | displacement of BD-verapamil from P-gp (in words) (murine P-gp [2]) | displacement of BD-vinblastine from P-gp (in words) (murine P-gp [2]) | n (Hill coefficient) (murine P-gp [2]) | Kd [4] | Kd (murine P-gp [5]; AMP-PNP (1 mM), apparent KD) | Kd (murine P-gp [5]; [8]) | Kd (murine P-gp [5]; [9]) | V2 (rate of ATP hydrolysis at infinite substrate concentration) (mouse P-gp mdr1a [6]) | stimulation of ATPase activity (in words) (mouse P-gp mdr1a [6]) | V1 (maximal rate of ATP hydrolysis when there is only activation) (mouse P-gp mdr1a [6]) | other results |
| --- | --- | --- | --- | --- | --- | --- | --- | --- | --- | --- | --- | --- | --- |
| CC(=O)O[C@H]1C(=O)[C@@]2(C)[C@H]([C@H](OC(=O)c3ccccc3)[C@]3(O)C[C@H](OC(=O)[C@H](O)[C@@H](NC(=O)c4ccccc4)c4ccccc4)C(C)=C1C3(C)C)[C@]1(OC(C)=O)CO[C@@H]1C[C@@H]2O [paclitaxel] | 48 ± 6 nmol of Pi min^−1 mg^−1 | 1.3 ± 0.5 µM | did not displace | displaced | 0.5 ± 0.5 |  |  |  |  |  |  |  |  |
| CC[C@]1(O)C[C@@H]2CN(CCc3c([nH]c4ccccc34)[C@@](C(=O)OC)(c3cc4c(cc3OC)N(C)[C@H]3[C@@](O)(C(=O)OC)[C@H](OC(C)=O)[C@]5(CC)C=CCN6CC[C@]43[C@@H]65)C2)C1 [vinblastine] | >0 ^a nmol of Pi min^−1 mg^−1 | 2.6 ± 1.0 µM | displaced | displaced | 0.4± 0.1 |  |  |  |  |  |  |  | IC50 (murine P-gp [3]): 17500 ± 11000 nM |
| BODIPY vinblastine [BD-vinblastine] | 21 ± 4 nmol of Pi min^−1 mg^−1 |  |  |  |  | 1700 nM and 1670 nM | 83 ± 12 nM | 290 ± 40 nM | 42 ± 6 nM | 156.5 ± 24.8 nmol of Pi min^−1 mg^−1 | Neither BD-vinblastine or Flutax-2 stimulated ATPase activity | 465 ^b nmol of Pi min^−1 mg^−1 | stimulation of ATP hydrolysis over basal ATPase activity (mouse P-gp mdr1a [1]): ~ 2 fold; increase in KD (decrease in affinity) with AMP-PNP (murine P-gp [5]; AMP-PNP vs nucleotide-free): 1.9 fold and 2 fold; increase in KD (decrease in affinity) in vanadate-trapped state (murine P-gp [5]; ATP and Vi vs nucleotide-free): 6.8 fold |
| Oregon Green 488 Paclitaxel [Flutax-2] | 18 ± 2 nmol of Pi min^−1 mg^−1 | 0.3 ± 0.7 ^d μM |  |  |  | 3600 nM and 3630 nM | 530 ± 90 nM | 490 ± 80 nM | 520 ± 90 nM | 33.2 ± 46.8 nmol of Pi min^−1 mg^−1 | no stimulation | 500 ^b nmol of Pi min^−1 mg^−1 | initial transport rate (murine P-gp [7]): ~42 pmol (mg of total protein)^−1 min^−1; stimulation of ATPase activity (in words) (mouse P-gp mdr1a [1]): does not stimulate ATPase activity; Kd (murine P-gp [5]; nucleotide-free, high-affinity interaction): 519 nM; stimulation of ATPase activity (in words) (mouse P-gp): did not stimulate ATPase activity; K1 (substrate concentration for half-maximal stimulation of ATPase activity) (mouse P-gp mdr1a [6]; footnote d = ambiguous, lack of ATPase stimulation): 0.2 ± 0.3 ^d μM |
| BODIPY FL verapamil [BD-verapamil] |  |  |  |  |  |  |  |  |  |  |  |  | KD [4]: negligible binding |
